Experimental data: ChEMBL document CHEMBL1126411, “Synthesis and HIV activity of phosphonate isosteres of D4T monophosphate” (Bioorg Med Chem Lett, 1992)

Test system: MT4
Experiment: Concentration required for the inhibition of HIV replication by 50% in MT-4 cells
Assay type: functional, cell-based
Details: Homo sapiens

SMILES | IC50 [µM]
Cc1cn([C@H]2C=C[C@@H](CO)O2)c(=O)[nH]c1=O [STAVUDINE] | 1.2
Cc1cn([C@H]2C=C[C@@H](OCP(=O)(O)O)O2)c(=O)[nH]c1=O | 1.3
Cc1cn([C@H]2C=C[C@@H](OCP(=O)(O)O)C2)c(=O)[nH]c1=O | > 1000
Cc1cn([C@H]2C=C[C@@H](CCP(=O)(O)O)O2)c(=O)[nH]c1=O | > 1000
